Test results published in ChEMBL document CHEMBL5537140, “Discovery and exploration of novel somatostatin receptor subtype 5 (SSTR5) antagonists for the treatment of cholesterol gallstones” (Eur J Med Chem, 2024).
Activity calls are given as the source filed them. No cut-off for these calls is given here.

Columns and labels:
[1] = biological target: T1, Somatostatin receptor type 5 (Mus musculus, UniProt O08858); test: Antagonist activity at N-terminal HA-tagged mouse SSTR5 expressed in CHO cells assessed as change in intracellular […] level preincubated with agonist for 10 mins followed by compound addition by CRE-driven luciferase reporter based microplate reader; type: functional, cell-based
T1 sequence (O08858 whole entry): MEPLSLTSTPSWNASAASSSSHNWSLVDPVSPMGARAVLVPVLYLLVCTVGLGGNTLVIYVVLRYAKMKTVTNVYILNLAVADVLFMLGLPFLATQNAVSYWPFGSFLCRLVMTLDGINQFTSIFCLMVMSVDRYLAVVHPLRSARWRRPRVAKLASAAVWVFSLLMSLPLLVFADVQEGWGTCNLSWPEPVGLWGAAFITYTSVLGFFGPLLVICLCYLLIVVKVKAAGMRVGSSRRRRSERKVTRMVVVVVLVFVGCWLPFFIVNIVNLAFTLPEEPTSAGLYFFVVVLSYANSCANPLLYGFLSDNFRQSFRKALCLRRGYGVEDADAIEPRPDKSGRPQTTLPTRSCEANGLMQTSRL

[2] = test system: CHO; test: Cytotoxicity against CHO cells upto 10 uM; details: chinese hamster
[3] = biological target: Somatostatin receptor type 5 (Homo sapiens, UniProt P35346); test: Antagonist activity at N-terminal HA-tagged human SSTR5 expressed in CHO cells assessed as change in intracellular […] level preincubated with agonist for 10 mins followed by compound addition by CRE-driven luciferase reporter based microplate reader; type: functional, cell-based
Chain of Somatostatin receptor type 5 (Homo sapiens, UniProt P35346) (P35346 whole entry): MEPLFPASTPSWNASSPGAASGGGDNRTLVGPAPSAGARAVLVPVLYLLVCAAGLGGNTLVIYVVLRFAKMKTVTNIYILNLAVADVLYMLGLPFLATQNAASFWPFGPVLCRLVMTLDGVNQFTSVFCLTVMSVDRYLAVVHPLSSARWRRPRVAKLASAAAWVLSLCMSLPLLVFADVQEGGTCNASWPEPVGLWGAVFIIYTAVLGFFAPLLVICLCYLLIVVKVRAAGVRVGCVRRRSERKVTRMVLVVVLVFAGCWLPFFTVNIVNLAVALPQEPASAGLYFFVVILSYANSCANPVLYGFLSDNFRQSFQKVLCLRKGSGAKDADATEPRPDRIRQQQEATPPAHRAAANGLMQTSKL

[4] = test system: Mus musculus; test: Protection against lithogenic diet induced cholesterol gallstone C57BL/6J mouse model assessed as reduction in cholesterol gallstone formation at 60 mg/kg, po administered once daily for 14 days; type: functional, organism-based; details: time 14.0 day
[5] = Metabolic stability in mouse liver microsomes assessed as parent compound remaining at 1 uM incubated for 30 mins in presence of NADPH by LC-MS/MS analysis; type: ADME, Microsome; details: read-out: Stability
[6] = Metabolic stability in human liver microsomes assessed as parent compound remaining at 1 uM incubated for 30 mins in presence of NADPH by LC-MS/MS analysis; type: ADME, Microsome; details: read-out: Stability
[7] = biological target: Voltage-gated inwardly rectifying potassium channel KCNH2 (Homo sapiens, UniProt Q12809); test: Inhibition of hERG expressed in CHO cells by Qpatch automatic patch clamp method
Chain of Voltage-gated inwardly rectifying potassium channel KCNH2 (Q12809 whole entry): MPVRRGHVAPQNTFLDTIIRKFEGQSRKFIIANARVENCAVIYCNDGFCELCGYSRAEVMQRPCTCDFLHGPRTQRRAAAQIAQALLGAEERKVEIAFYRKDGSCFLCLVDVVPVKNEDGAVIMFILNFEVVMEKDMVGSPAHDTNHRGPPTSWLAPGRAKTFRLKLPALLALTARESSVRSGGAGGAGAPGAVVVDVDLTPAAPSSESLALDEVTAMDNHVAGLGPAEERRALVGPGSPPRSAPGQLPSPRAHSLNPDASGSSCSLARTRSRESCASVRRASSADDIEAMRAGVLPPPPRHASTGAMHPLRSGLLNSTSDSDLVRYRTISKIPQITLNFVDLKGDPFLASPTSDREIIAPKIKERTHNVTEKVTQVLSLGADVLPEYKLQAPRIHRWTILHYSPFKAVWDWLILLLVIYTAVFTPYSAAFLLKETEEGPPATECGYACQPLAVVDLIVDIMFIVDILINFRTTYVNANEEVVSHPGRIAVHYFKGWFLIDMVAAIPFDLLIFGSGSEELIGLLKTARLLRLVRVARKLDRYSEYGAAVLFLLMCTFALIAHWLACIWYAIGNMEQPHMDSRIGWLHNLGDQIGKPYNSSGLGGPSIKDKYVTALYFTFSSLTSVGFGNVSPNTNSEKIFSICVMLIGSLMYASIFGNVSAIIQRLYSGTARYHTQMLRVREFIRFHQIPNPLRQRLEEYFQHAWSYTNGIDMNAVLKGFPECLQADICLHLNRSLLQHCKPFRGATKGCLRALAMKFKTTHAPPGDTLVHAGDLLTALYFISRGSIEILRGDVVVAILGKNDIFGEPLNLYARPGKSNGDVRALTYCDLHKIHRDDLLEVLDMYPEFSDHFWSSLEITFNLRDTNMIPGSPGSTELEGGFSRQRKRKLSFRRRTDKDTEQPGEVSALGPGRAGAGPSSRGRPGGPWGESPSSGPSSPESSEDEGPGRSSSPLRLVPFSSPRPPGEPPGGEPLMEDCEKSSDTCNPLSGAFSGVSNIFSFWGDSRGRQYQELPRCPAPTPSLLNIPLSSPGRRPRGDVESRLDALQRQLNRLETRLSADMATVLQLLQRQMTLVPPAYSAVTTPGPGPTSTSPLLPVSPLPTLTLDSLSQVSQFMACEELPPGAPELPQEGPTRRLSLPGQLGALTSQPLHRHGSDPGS

[8] = Cytotoxicity against CHO cells assessed as cellular ATP at 10 uM relative to control; type: toxicity, cell-based, Cricetulus griseus; details: chinese hamster, read-out: Activity
[9] = Half-life in C57BL/6J mouse at 3 mg/kg, po measured at 0.25 to 24 hrs by LC-MS/MS analysis; type: ADME, organism-based; details: in vivo, time 0.25-24 hrs
[10] = Tmax in C57BL/6J mouse at 3 mg/kg, po measured at 0.25 to 24 hrs by LC-MS/MS analysis; type: ADME, organism-based; details: in vivo, time 0.25-24 hrs
[11] = Cmax in C57BL/6J mouse at 3 mg/kg, po measured at 0.25 to 24 hrs by LC-MS/MS analysis; type: ADME, organism-based; details: in vivo, time 0.25-24 hrs
[12] = Observed AUC (0 to infinity) in C57BL/6J mouse at 3 mg/kg, po measured at 0.25 to 24 hrs by LC-MS/MS analysis; type: ADME, organism-based; details: in vivo, time 0.25-24 hrs
[13] = Oral bioavailability in C57BL/6J mouse at 3 mg/kg measured at 0.25 to 24 hrs by LC-MS/MS analysis; type: ADME, organism-based; details: in vivo, time 0.25-24 hrs
[14] = Half-life in C57BL/6J mouse at 1 mg/kg, iv measured at 0.05 to 24 hrs by LC-MS/MS analysis; type: ADME, organism-based; details: in vivo, time 0.05-24 hrs
[15] = Observed AUC (0 to infinity) in C57BL/6J mouse at 1 mg/kg, iv measured at 0.05 to 24 hrs by LC-MS/MS analysis; type: ADME, organism-based; details: in vivo, time 0.05-24 hrs
[16] = Observed clearance in C57BL/6J mouse at 1 mg/kg, iv measured at 0.05 to 24 hrs by LC-MS/MS analysis; type: ADME, organism-based; details: in vivo, time 0.05-24 hrs
[17] = Observed volume of distribution at steady state in C57BL/6J mouse at 1 mg/kg, iv measured at 0.05 to 24 hrs by LC-MS/MS analysis; type: ADME, organism-based; details: in vivo, time 0.05-24 hrs, read-out: Vdss
[18] = test system: Mus musculus; test: Induction of gallbladder emptying in C57BL/6J mouse assessed as reduction in gallbladder weight at 10 mg/kg, po preadministered with compound for 30 mins followed by egg yolk administration and measured after 15 mins; type: functional, organism-based; details: time 45.0 min
[19] = test system: Mus musculus; test: Protection against lithogenic diet induced cholesterol gallstone C57BL/6J mouse model assessed as reduction in cholesterol gallstone formation at 1 to 3 mg/kg, po administered once daily for 14 days; type: functional, organism-based; details: dose 1-3 mg/kg, time 14.0 day
[20] = test system: Mus musculus; test: Protection against lithogenic diet induced cholesterol gallstone C57BL/6J mouse model assessed as reduction in large gallstone precipitate at 1 to 3 mg/kg, po administered once daily for 14 days; type: functional, organism-based; details: dose 1-3 mg/kg, time 14.0 day
[21] = test system: Mus musculus; test: Protection against lithogenic diet induced cholesterol gallstone C57BL/6J mouse model assessed as reduction in dense-cored gallstone precipitate at 1 to 3 mg/kg, po administered once daily for 14 days; type: functional, organism-based; details: dose 1-3 mg/kg, time 14.0 day
[22] = test system: Mus musculus; test: Protection against lithogenic diet induced cholesterol gallstone C57BL/6J mouse model assessed as reduction in large gallstone precipitate at 60 mg/kg, po administered once daily for 14 days; type: functional, organism-based; details: time 14.0 day
[23] = test system: Mus musculus; test: Protection against lithogenic diet induced cholesterol gallstone C57BL/6J mouse model assessed as reduction in dense-cored gallstone precipitate at 60 mg/kg, po administered once daily for 14 days; type: functional, organism-based; details: time 14.0 day

| SMILES | IC50 [1] [nM] | Activity [2] | other results |
| --- | --- | --- | --- |
| CCOc1cc(CN2CCC(O)(Cc3ccc(C(=O)O)cc3)CC2)cc(OCC)c1-c1ccc(F)cc1 | 176 | Non-Toxic |  |
| CCOc1cc(CN2CCC(Oc3ccc(C(=O)O)cc3)CC2)cc(OCC)c1-c1ccc(F)cc1 | 44.3 | Non-Toxic |  |
| CCOc1cc(CN2CC(CNc3ccc(C(=O)O)cc3)C2)cc(OCC)c1-c1ccc(F)cc1 | 157 | Non-Toxic |  |
| CCOc1cc(CN2CCC(F)(CNc3ccc(N)cc3)CC2)cc(OCC)c1-c1ccc(F)cc1 | 1770 | Non-Toxic |  |
| CCOc1cc(CN2CC(Nc3ccc(C(=O)O)cc3)C2)cc(OCC)c1-c1ccc(F)cc1 | 183 | Non-Toxic | IC50 [3]: 1010 nM |
| CCOc1cc(CN2CCC(F)(CNc3ccc(C(=O)O)cc3OC)CC2)cc(OCC)c1-c1ccc(F)cc1 | 20.5 | Non-Toxic |  |
| CCOc1cc(CN2CCC(F)(C(=O)Nc3ccc(C(=O)O)cc3)CC2)cc(OCC)c1-c1ccc(F)cc1 | 2560 | Non-Toxic |  |
| C[C@H](CCC(=O)O)[C@H]1CC[C@H]2[C@@H]3[C@@H](O)C[C@@H]4C[C@H](O)CC[C@]4(C)[C@H]3CC[C@]12C |  |  | Activity [4]: Active |
| CCOc1cc(CN2CCC(O)(CNc3ccc(C(=O)O)cc3)CC2)cc(OCC)c1-c1ccc(F)cc1 | 52 | Non-Toxic |  |
| CCOc1cc(CN2CCC(C(=O)Nc3ccc(C(=O)O)cc3)CC2)cc(OCC)c1-c1ccc(F)cc1 | 853 | Non-Toxic |  |
| CCOc1cc(CN2CCC(O)(COc3ccc(C(=O)O)cc3)CC2)cc(OCC)c1-c1ccc(F)cc1 | 51.1 | Non-Toxic |  |
| CCOc1cc(CN2CCC(COc3ccc(C(=O)O)cc3)CC2)cc(OCC)c1-c1ccc(F)cc1 | 11.5 |  |  |
| CCOc1cc(CN2CCC(O)(c3ccc(Cl)cc3)CC2)cc(OCC)c1-c1ccc(F)cc1 | 11100 | Non-Toxic |  |
| CN(C)C(=O)C(CCN1CCC(O)(c2ccc(Cl)cc2)CC1)(c1ccccc1)c1ccccc1 [LOPERAMIDE] | 63600 | Non-Toxic | IC50 [3]: 33100 nM |
| CCOc1cc(CN2CCC(F)(COc3ccc(C(=O)O)cc3)CC2)cc(OCC)c1-c1ccc(F)cc1 | 14.8 | Non-Toxic | remaining at 0.5 h, 1 µM [5]: 61% |
| CCOc1cc(CN2CCC(C)(C(=O)Nc3ccc(C(=O)O)cc3)CC2)cc(OCC)c1-c1ccc(F)cc1 | 12200 | Non-Toxic |  |
| CCOc1cc(CN2CCC(F)(CNc3ccc(C(=O)O)c(C)c3)CC2)cc(OCC)c1-c1ccc(F)cc1 | 97.5 | Non-Toxic |  |
| CCOc1cc(CN2CCC(C)(COc3ccc(C(=O)O)cc3)CC2)cc(OCC)c1-c1ccc(F)cc1 | 1860 | Non-Toxic | IC50 [3]: 3410 nM |
| CCOc1cc(CN2CCC(F)(CNc3ccc(C(=O)O)cc3C)CC2)cc(OCC)c1-c1ccc(F)cc1 | 25.4 | Non-Toxic |  |
| CCOc1cc(CN2CCC(O)(C(=O)Nc3ccc(C(=O)O)cc3)CC2)cc(OCC)c1-c1ccc(F)cc1 | 14700 | Non-Toxic | IC50 [3]: 22900 nM |
| CCOc1cc(CN2CC(COc3ccc(C(=O)O)cc3)C2)cc(OCC)c1-c1ccc(F)cc1 | 394 | Non-Toxic |  |
| CCOc1cc(CN2CCC(CNc3ccc(C(=O)O)cc3)CC2)cc(OCC)c1-c1ccc(F)cc1 | 91.7 | Non-Toxic |  |
| CCOc1cc(CN2CCC(C)(CNc3ccc(C(=O)O)cc3)CC2)cc(OCC)c1-c1ccc(F)cc1 | 128 | Non-Toxic |  |
| CCOc1cc(CN2CCC(F)(CNc3ccc(C(=O)O)c(Cl)c3)CC2)cc(OCC)c1-c1ccc(F)cc1 | 42.2 | Non-Toxic |  |
| CCOc1cc(CN2CCC(F)(CNc3ccc(C(=O)O)cc3Cl)CC2)cc(OCC)c1-c1ccc(F)cc1 | 132 | Non-Toxic |  |
| CCOc1cc(CN2CCC(F)(CNc3ccc(O)cc3)CC2)cc(OCC)c1-c1ccc(F)cc1 | 1300 | Non-Toxic |  |
| CCOc1cc(CN2CCC(F)(CNc3ccc(C(=O)O)c(OC)c3)CC2)cc(OCC)c1-c1ccc(F)cc1 | 1.4 | Non-Toxic | IC50 [3]: 2.8 nM; remaining at 0.5 h, 1 µM [6]: 92.5%; IC50 [7]: > 20000 nM; remaining at 0.5 h, 1 µM [5]: 59.8%; viability at 10 µM [8]: 92%; half-life [9]: 3.58 h; Tmax [10]: 0.33 h; Cmax [11]: 208 ng/mL; AUC(0-inf) [12]: 494 ng·h/mL; bioavailability [13]: 29.3%; half-life [14]: 2.45 h; AUC(0-inf) [15]: 562 ng·h/mL; clearance [16]: 30.5 mL/min/kg; Vd [17]: 2.6 L/kg; Activity [18]: Active; Activity [19]: Active; Activity [20]: Active; Activity [21]: Active; Activity [22]: Active; Activity [23]: Active |
| CCOc1cc(CN2CCC(F)(CNc3ccc(C(=O)O)cc3)CC2)cc(OCC)c1-c1ccc(F)cc1 | 13.9 | Non-Toxic | IC50 [3]: 27.6 nM; IC50 [7]: > 20000 nM; remaining at 0.5 h, 1 µM [5]: 81.4% |
